According to US11466013B2 (Betta Pharmaceuticals Co., LTD, priority 2018, dated 2022):

What was measured:
ERK2 = ERK2 (Homo sapiens, UniProt P28482); assay: Kinase assay (Caliper, FAM-labeled peptide), ERK2; type: biochemical
Description: (§1) The compound was diluted to the desired concentration with DMSO, transferred 100 μL to a 96-well plate, and performed a gradient dilution 10 μL of compound from each well was taken and mixed with 90 μL of kinase buffer, and then transferred 5 μL from each well to a 384-well plate. Kinase and FAM-labeled peptide and ATP were added to 1× kinase alkaline buffer to obtain 2.5× enzyme solution and 2.5× peptide solution, 10 μL of 2.5× enzyme solution was added to the 384-well assay plate. After incubating for 10 minutes at room temperature, 10 μL of 2.5× peptide solution was added to the 384-well plate. After reacting for a specific time at […], 25 μL of termination buffer was added to stop reaction. After reading the collected data on Caliper, the data was converted to inhibition percentage. Inhibition percentage=(maximum value−conversion value)/(maximum value−minimum value)*100.
(§2) The “maximum” is the DMSO control, the “minimum” indicates the low control.
(§3) Graphpad Prism software was used to perform curve fitting and obtain IC50 value.

ERK1 = ERK1 (Homo sapiens, UniProt P27361); assay: Kinase assay (Caliper, FAM-labeled peptide), ERK1; type: biochemical
Sequence of ERK1 (P27361 whole entry): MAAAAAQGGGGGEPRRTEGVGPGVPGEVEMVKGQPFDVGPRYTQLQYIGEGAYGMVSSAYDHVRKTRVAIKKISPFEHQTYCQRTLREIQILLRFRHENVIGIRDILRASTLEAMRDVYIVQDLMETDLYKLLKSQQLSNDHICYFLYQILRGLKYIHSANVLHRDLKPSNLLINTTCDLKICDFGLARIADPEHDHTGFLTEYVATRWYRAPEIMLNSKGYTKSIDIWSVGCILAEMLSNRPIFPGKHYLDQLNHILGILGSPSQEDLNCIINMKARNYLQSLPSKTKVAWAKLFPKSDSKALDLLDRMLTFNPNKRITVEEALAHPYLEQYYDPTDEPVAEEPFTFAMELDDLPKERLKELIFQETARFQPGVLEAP
Description: as §1, §2, §3

Sequence of ERK2 (P28482 whole entry): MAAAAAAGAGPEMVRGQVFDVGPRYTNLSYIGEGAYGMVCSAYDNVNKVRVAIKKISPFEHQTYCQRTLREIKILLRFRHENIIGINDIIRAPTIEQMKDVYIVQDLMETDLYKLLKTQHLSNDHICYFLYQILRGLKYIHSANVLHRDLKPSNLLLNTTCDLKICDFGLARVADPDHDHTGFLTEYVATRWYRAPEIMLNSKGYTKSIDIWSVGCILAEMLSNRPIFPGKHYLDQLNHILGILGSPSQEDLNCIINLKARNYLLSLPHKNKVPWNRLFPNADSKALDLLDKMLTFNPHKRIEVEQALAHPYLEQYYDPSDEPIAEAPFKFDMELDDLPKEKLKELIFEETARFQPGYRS

| IC50 (ERK2) [nM] | IC50 (ERK1) [nM] | SMILES |
| --- | --- | --- |
| 0.9 | 0.8 | CCc1ccccc1Nc1ncc(C)c(-c2cc3n(c2)CCN(Cc2cc(F)ccc2CO)C3=O)n1 [Example 132, 7-(2-((2-Ethylphenyl)amino)-5-methylpyrimidin-4-yl)-2-(5-fluoro-2-(hydroxymethyl)benzyl)-3,4-dihydropyrrolo[1,2-a] pyrazine-1(2H)-one] |
| 1.4 | 0.83 | CCNc1ncc(Cl)c(-c2cc3n(c2)C[C@H](COC)N(Cc2cc(F)ccc2CO)C3=O)n1 [Example 131, (R)-7-(5-chloro-2-(ethylamino)pyrimidin-4-yl)-2-(5-fluoro-2-(hydroxymethyl)benzyl)-3-(methoxymethyl)-3,4-dihydropyrrolo[1,2-a] pyrazine-1(2H)-one] |
| 0.97 | – | COC[C@H]1Cn2cc(-c3cc(Nc4c(C)cnn4C)ncc3Cl)cc2C(=O)N1Cc1cc(F)ccc1CO [Example 97, (R)-7-(5-chloro-2-((1,4-dimethyl-1h-pyrazole-5-yl)amino)pyridine-4-yl)-2-(5-fluoro-2-(hydroxymethyl)benzyl)-3-(methoxymethyl)-3,4-dihydropyrrolo[1,2-a] pyrazine-1(2H)-one] |
| 0.7 | 1.6 | Cc1cnc(Nc2cccc3c2OCCO3)nc1-c1cc2n(c1)CCN(Cc1cc(F)ccc1CO)C2=O [Example 135, 7-(2-((2,3-dihydrobenzo[b][1,4]dioxane-5-yl)amino)-5-methylpyrimidin-4-yl)-2-(5-fluoro-2-(hydroxymethyl)benzyl)-3,4-dihydropyrrolo[1,2-a] pyrazine-1(2H)-one] |
| 0.6 | 2.7 | Cc1cnc(Nc2ccccc2)nc1-c1cc2n(c1)CCN(Cc1cc(F)ccc1CO)C2=O [Example 137, 2-(5-fluoro-2-(hydroxymethyl)benzyl)-7-(5-methyl-2-(phenylamino)pyrimidin-4-yl)-3,4-dihydropyrrolo[1,2-a] pyrazine-1(2H)-one] |
| 0.5 | 0.6 | CC(C)Nc1cc(-c2cc3n(c2)CC2(COCOC2)CN(Cc2cc(F)ccc2CO)C3=O)c(Cl)cn1 [Example 43, 8-(5-Chloro-2-(isopropylamino)pyridin-4-yl)-2-(5-fluoro-2-(hydroxymethyl)benzyl)-2,3-dihydro-1H,5H-spiro[pyrrolo[1,2-a][1,4]diazepine-4,5′-[1,3]dioxane]-1-one] |
| 0.5 | 0.5 | Cc1cnc(Nc2ccc3c(cnn3C)c2)nc1-c1cc2n(c1)CCN(Cc1cc(F)ccc1CO)C2=O [Example 134, 2-(5-fluoro-2-(hydroxymethyl)benzyl)-7-(5-methyl-2-((1-methyl-1h-indazole-5-yl)amino)pyrimidin-4-yl)-3,4-dihydropyrrolo[1,2-a] pyrazine-1(2H)-one] |
| 1 | 0.4 | COC[C@H]1Cn2cc(-c3cc(NC(C)=O)ncc3Cl)cc2C(=O)N1Cc1cc(F)ccc1CO [Example 112, (R)-N-(5-chloro-4-(2-(5-fluoro-2-(hydroxymethyl)benzyl)-3-(methoxymethyl)-1-oxo-1,2,3,4-tetrahydropyrrolo [1,2-a]pyrazin-7-yl)pyridine-2-yl) acetamide] |
| 0.89 | 0.65 | O=C1c2cc(-c3cc(NC4CC(F)(F)C4)ncc3Cl)cn2CCN1Cc1cc(F)ccc1CO [Example 128, 7-(5-chloro-2-((3,3-difluorocyclobutyl)amino)pyridine-4-yl)-2-(5-fluoro-2 (hydroxymethyl)benzyl)-3,4-dihydropyrrolo[1,2-a] pyrazine-1(2H)-one] |
| 0.9 | – | COC[C@H]1Cn2cc(-c3c(Cl)cnc(Nc4ccnn4C)c3F)cc2C(=O)N1Cc1cc(F)ccc1CO [Example 47, (H)-7-(5-chloro-3-fluoro-2-((1-methyl-1H-pyrazol-5-yl)amino)pyridin-4-yl)-2-(5-fluoro-2-(hydroxymethyl)benzyl)-3-(methoxymethyl)-3,4-dihydropyrrolo[1,2-a]pyrazine-1(2H)-ketone] |

The remaining lines, values behind:

| SMILES | IC50 (ERK2) [nM] | IC50 (ERK1) [nM] |
| --- | --- | --- |
| COC[C@H]1Cn2cc(-c3cc(Nc4ccn(CC(F)F)n4)ncc3Cl)cc2C(=O)N1Cc1cc(F)ccc1CO [Example 114, (R)-7-(5-chloro-2-((1-(2,2-difluoroethyl)-1h-pyrazole-3-yl)amino)pyridine-4-yl)-2-(5-fluoro-2-(hydroxymethyl)benzyl)-3-(methoxymethyl)-3,4-dihydropyrrolo[1,2-a] pyrazine-1(2H)-one] | 1.3 | 1.3 |
| COC[C@H]1Cn2cc(-c3cc(NC4CCC(OC)CC4)ncc3Cl)cc2C(=O)N1Cc1cc(F)ccc1CO (stereo partly drawn) [Example 111, (R)-7-(5-chloro-2-((4-methoxycyclohexyl)amino)pyridine-4-yl)-2-(5-fluoro-2-(hydroxymethyl)benzyl)-3-(methoxymethyl)-3,4-dihydropyrrolo[1,2-a] pyrazine-1(2H)-one] | 0.9 | 0.9 |
| COC[C@H]1Cn2cc(-c3cc(NC(=O)c4csc(C)n4)ncc3Cl)cc2C(=O)N1Cc1cc(F)ccc1CO [Example 117, (R)-N-(5-chloro-4-(2-(5-fluoro-2-(hydroxymethyl)benzyl)-3-(methoxymethyl)-1-oxo-1,2,3,4-tetrahydropyrrolo [1,2-a]pyrazin-7-yl)pyridine-2-yl)-2-methylthiazol-4-formamide] | 1 | 1.2 |
| CC(C)Nc1cc(-c2cc3n(c2)CC2(COC(C)(C)OC2)CN(Cc2ccccc2CO)C3=O)c(Cl)cn1 [Example 26, 8-(5-Chloro-2-(isopropylamino)pyridin-4-yl)-2-(2-(hydroxymethyl)benzyl)-2′,2′-dimethyl-2,3-dihydro-1H,5H-spiro[pyrrolo[1,2-a][1,4]diazepine-4,5′-[1,3]dioxane]-1-one] | 1.4 | 1.3 |
| COC[C@H]1Cn2cc(-c3cc(NC(C)C)ncc3Cl)cc2C(=O)N1Cc1cc(F)ccc1CO [Example 34, (R)-7-(5-chloro-2-(isopropylamino)pyridin-4-yl)-2-(5-fluoro-2-(hydroxymethyl)benzyl)-3-(methoxymethyl)-3,4-dihydropyrrolo[1,2-a]pyrazine-1(2H)-one] | 0.4 | 0.2 |
| CC(C)Nc1cc(-c2c[nH]c(C(=O)NCc3ccccc3CO)c2)c(Cl)cn1 [Example 1, 4-(5-chloro-2-(isopropylamino)pyridin-4-yl)-N-(2-(hydroxymethyl)benzyl)-1H-pyrrole-2-methyl amide] | 3.4 | 3 |
| CC(C)Nc1cc(-c2cc3n(c2)C[C@H](CO)N(Cc2cc(F)ccc2CO)C3=O)c(Cl)cn1 [Example 59, (R)-7-(5-chloro-2-(isopropylamino)pyridin-4-yl)-2-(5-fluoro-2-(hydroxymethyl)benzyl)-3-(hydroxymethyl)-3,4-dihydropyrrolo[1,2-a] pyrazine-1(2H)-one] | 0.49 | 0.51 |
| CC(C)Nc1cc(-c2cc3n(c2)CC2(COC(C)(C)OC2)CN(Cc2cc(F)ccc2CO)C3=O)c(Cl)cn1 [Example 28, 8-(5-chloro-2-(isopropylamino)pyridin-4-yl)-2-(5-fluoro-2-(hydroxymethyl)benzyl)-2′,2′-dimethyl-2,3-dihydro-1h,5h-spiro[pyrrolo [1,2-a][1,4]diazepine-4,5′-[1,3]dioxane]-1-one] | 1.6 | 0.9 |
| COC[C@H]1Cn2cc(-c3cc(NC(C)C)ncc3Cl)nc2C(=O)N1Cc1cc(F)ccc1CO [Example 46, (R)-2-(5-chloro-2-(isopropylamino)pyridin-4-yl)-7-(5-fluoro-2-(hydroxymethyl)benzyl)-6-(methoxymethyl)-6,7-dihydroimidazo[1,2-a]pyrazine-8-(5H)-one] | 1.4 | 2.8 |
